Reference: patent US12325688B2, “Gingerenone A prodrugs as sensotherapeutics and methods of use” (The U.S.A., as Represented by the Secretary, Department of …, priority 2022, dated 2025)
Entries after “also recorded” stand apart in the source; their conditions may differ.

Columns and labels:
Assay type in all cases: cell-based, human
[1] = system: IR-induced senescent WI-38 fibroblasts; assay: MTT cell viability assay, senescent cells; conditions: for senolytic activity (selective decrease of viability of senescent cells): components at 100 μM, 6-shogaol 3.6 μM, 8-shogaol 33 μM, 6-gingerol 20 μM; for senescent cell viability: D+Q 250 nM dasatinib + 10 μM quercetin, gingerenone A 20 μM, 6-shogaol 72.4 nM
Method: Cell culture and treatments: WI-38 human diploid fibroblasts (HDFs) were cultured in Dulbecco's modified Eagle's medium (DMEM) supplemented with 10% heat-inactivated fetal bovine serum (FBS), penicillin and streptomycin, and non-essential amino acids at 37° C. in a 5% CO2 incubator. HDFs were rendered senescent by exposure to 10 Gy of ionizing radiation (IR) and then cultured for an additional ten days. Proliferating and senescent WI-38 cells were seeded in triplicate overnight at 2×10^5 cells/well (in 6 well plates) to achieve ˜-60% confluence by the next day. Cells were then treated with the extracts for times indicated. […]
MTT cell viability: The MTT assay (BioVision Milpitas, CA) was carried out following the manufacturer's protocol. Briefly, the media was gently removed from each well and 50 μl of serum-free medium+50 μl of Solution A were added to each well. The plates were incubated at 37° C. for MTT reduction into formazan for 3 h. Next, 150 μl Solution B was added to each well and the plate was covered with foil and shaken at 600 rpm for 15 min. The absorbance was measured at 590 nm using Enspire, Perkin Elmer Multimode plate reader. […]
WI-38 fibroblasts were rendered senescent by exposure to ionizing radiation (IR, 10 Gy) and cultured for an additional 10 days. […] Data represent the means and standard error from three biological replicates. The major components of ginger extract, namely 6-gingerol, 8-gingerol, 10-gingerol, 6-shogaol, 8-shogaol, gingerenone A, and zingerone, were screened for their ability to selectively decrease cell viability of senescent cells using the MTT assay (FIG. 10A).

[2] = system: proliferating and senescent WI-38 fibroblasts; assay: Western blot of apoptotic pathway proteins; conditions: 48 h; for expression of anti-apoptotic protein Bcl-XL / levels of pro-apoptotic protein cleaved caspase-3: senescent cells
Method: Protein analysis: Cells were lysed in RIPA lysis buffer (Pierce, ThermoFisher) containing protease and phosphatase inhibitors (Roche) and incubated on ice for 10 min. The lysates were then sonicated for 5 min and centrifuged for 10 min at 4° C. to remove the insoluble fraction. The remaining supernatant was the whole-cell lysate. Lysates were separated by SDS-polyacrylamide gel electrophoresis (SDS-PAGE) and transferred onto nitrocellulose membranes (Biorad). Incubations with primary antibodies recognizing p21, p53, Beta-Actin (ACTB) (Santa Cruz Biotechnology), as well as caspase-3 (Abcam) and Bcl-XL (Cell Signaling) were followed by incubations with the appropriate secondary antibodies conjugated with horseradish peroxidase (GE Healthcare). Signals were developed using Enhanced Chemiluminescence (ECL) and acquired by using the ChemiDoc MP Imaging System (BioRad).
The effects of gingerenone A, 6-shogaol and D+Q on cytokines and chemokines that are known to be part of the senescence-associated secretory phenotype (SASP) were tested. WI-38 fibroblasts were rendered senescent by exposure to ionizing radiation (IR, 10 Gy) and cultured for an additional 10 days. Cells were then treated with gingerenone A (20 μM) and 6-shogaol (72.4 nM) and incubated for 24 h. CCL-2 (MCP-1) and IL-10 were measured using the Bio-plex (Multiplex); IL6 was measured using Quantikine IL-6 (R&D) (FIG. 12A). Data were normalized to cell number/total protein content. Data in graphs represent the means and standard error from three biological replicates. […] Ratios of cleaved pro-caspase 3 to total caspase 3, normalized to ACTB levels, are shown as relative to control proliferating cells. Cytokines (FIG. 13A) and chemokines (FIG. 13B) were measured using the V-plex panel (MSD) after treatment for 24 h with the indicated drugs. Relative secretion was measured as pg/ml vs control normalized on TE. Data in the graphs represent the means and standard error from three biological replicates.
To determine whether gingerenone A and 6-shogaol might influence the apoptotic pathway, their effect on the levels of cleaved caspase-3 (pro-apoptotic marker), and Bcl-XL (anti-apoptotic protein) (FIG. 12B) was tested. […] However, D+Q, gingerenone A, and 6-shogaol all reduced the expression of the anti-apoptotic protein Bcl-XL in senescent cells (FIG. 12B, right).

[3] = system: senescent WI-38 fibroblasts; assay: Secreted SASP cytokines and chemokines (ELISA, multiplex, V-PLEX)
Method: Secreted protein analysis—ELISA, Luminex Multiplex and V-PLEX: Media was collected at the earliest timepoint (24 h after treatments) to avoid cell death that could interfere with the assay. The media was centrifuged at 1000×g for 5 min to remove debris. The secretion of IL-6 was measured by the Quantikine ELISA Kit (R&D systems) and the expression of pro-inflammatory cytokines and chemokines [IL-6, TNFα, CCL2 (MCP-1), IL-8, IFNβ] was also assessed by multiplex assays (customized Luminex plate, R&D) according to the manufacturer's instructions. The V-PLEX Plus Proinflammatory Panel 1 Human Kit and the Chemokine Panel 1 preparation and detection were carried out following the manufacturer's protocol (Mesoscale Diagnostics) using >80% confluency of proliferating or senescent cells on 24-well plates. Briefly, different concentrations of standards and samples were added to the plates, and they were incubated for 2 h on a microplate shaker. The plates were washed, and the corresponding detection antibody mixture was added to each well and incubated for 1 h with shaking. The plates were washed twice then Read buffer was added to each well. The plates were read on the MESO Quickplex SQ 120 (MSD, Rockville, MD) and protein concentrations were determined using MSD Discovery workbench 4.0. The effects of gingerenone A, 6-shogaol and D+Q on cytokines and chemokines that are known to be part of the senescence-associated secretory phenotype (SASP) were tested. WI-38 fibroblasts were rendered senescent by exposure to ionizing radiation (IR, 10 Gy) and cultured for an additional 10 days. Cells were then treated with gingerenone A (20 μM) and 6-shogaol (72.4 nM) and incubated for 24 h. CCL-2 (MCP-1) and IL-10 were measured using the Bio-plex (Multiplex); IL6 was measured using Quantikine IL-6 (R&D) (FIG. 12A). Data were normalized to cell number/total protein content. Data in graphs represent the means and standard error from three biological replicates. […] Ratios of cleaved pro-caspase 3 to total caspase 3, normalized to ACTB levels, are shown as relative to control proliferating cells. Cytokines (FIG. 13A) and chemokines (FIG. 13B) were measured using the V-plex panel (MSD) after treatment for 24 h with the indicated drugs. Relative secretion was measured as pg/ml vs control normalized on TE. Data in the graphs represent the means and standard error from three biological replicates.

[4] = system: proliferating WI-38 fibroblasts; assay: MTT cell viability assay, proliferating cells; conditions: 48 h; D+Q 250 nM dasatinib + 10 μM quercetin, gingerenone A 20 μM, 6-shogaol 72.4 nM
Method: Cell culture and treatments: WI-38 human diploid fibroblasts (HDFs) were cultured in Dulbecco's modified Eagle's medium (DMEM) supplemented with 10% heat-inactivated fetal bovine serum (FBS), penicillin and streptomycin, and non-essential amino acids at 37° C. in a 5% CO2 incubator. HDFs were rendered senescent by exposure to 10 Gy of ionizing radiation (IR) and then cultured for an additional ten days. Proliferating and senescent WI-38 cells were seeded in triplicate overnight at 2×10^5 cells/well (in 6 well plates) to achieve ˜-60% confluence by the next day. Cells were then treated with the extracts for times indicated.
In 24-well plates, cells were treated with multiple dilutions (1:200 and 1:500) of Harpagophytum procumbens (Devil's Claw) (herb to menstruum ratio, 1:3), Uncaria tomentosa (Cat's Claw) (herb to menstruum ratio, 1:3), Zingiber officinale Rosc. […]
MTT cell viability: The MTT assay (BioVision Milpitas, CA) was carried out following the manufacturer's protocol. […] The absorbance was measured at 590 nm using Enspire, Perkin Elmer Multimode plate reader.
Four plant extracts were screened for senolytic activity, including extracts from Harpagophytum procumbens (Devil's Claw), Uncaria tomentosa (Cat's Claw), Zingiber officinale Rosc. […] In FIG. 8B, the impact on ginger extract on proliferating and senescent cells on cell survival was assessed by the MTT cell viability assay.

Structure (SMILES): CCCCC[C@H](O)CC(=O)CCc1ccc(O)c(OC)c1 [6-gingerol]
- senolytic activity (selective decrease of viability of senescent cells) ([1]; 72 h): only 6-shogaol and gingerenone A displayed senolytic activity

Structure (SMILES): CCCCC/C=C/C(=O)CCc1ccc(O)c(OC)c1 [6-shogaol]
- expression of anti-apoptotic protein Bcl-XL [2]: reduced
- levels of pro-apoptotic protein cleaved caspase-3 [2]: increase
- senescent cell viability ([1]; 48 h): moderate degree of cell death
- senolytic activity (selective decrease of viability of senescent cells) ([1]; 72 h): displayed senolytic activity
- changes in any of the cytokines and chemokines measured ([3]; 24 h, 72.4 nM): did not induce major changes
- effect on proliferating (non-irradiated) cells [4]: significant increase

Structure (SMILES): CCCCCCC[C@H](O)CC(=O)CCc1ccc(O)c(OC)c1 [8-gingerol]
- senolytic activity (selective decrease of viability of senescent cells) ([1]; 72 h): only 6-shogaol and gingerenone A displayed senolytic activity

Structure (SMILES): CCCCCCC/C=C/C(=O)CCc1ccc(O)c(OC)c1 [8-shogaol]
- senolytic activity (selective decrease of viability of senescent cells) ([1]; 72 h): only 6-shogaol and gingerenone A displayed senolytic activity

Structure (SMILES): CCCCCCCCC[C@H](O)CC(=O)CCc1ccc(O)c(OC)c1 [10-gingerol]
- senolytic activity (selective decrease of viability of senescent cells) ([1]; 72 h): only 6-shogaol and gingerenone A displayed senolytic activity

Structure (SMILES): COc1cc(CC/C=C/C(=O)CCc2ccc(O)c(OC)c2)ccc1O [gingerenone A, Gingerenone A]
- p53 levels ([2]; proliferating and senescent cells): did not increase
- expression of anti-apoptotic protein Bcl-XL [2]: reduced
- levels of pro-apoptotic protein cleaved caspase-3 [2]: increase
- senescent cell viability relative to proliferating cells ([1]; 20 μM, 48 h): significant decrease; also recorded: significantly decreased
- selectivity for senescent over proliferating cells ([1]; 48 h, 20 μM, compared to D+Q): higher selectivity compared to D+Q
- senescent cell viability ([1]; 48 h): significantly decreased
- senolytic activity (selective decrease of viability of senescent cells) ([1]; 72 h): displayed senolytic activity
- IC50 ([1]; Homo sapiens, WI-38, light or radiation study, dose response 2.5-100 μM, 72 h, 10 days post-irradiation): 19.6 ± 2.1 µM
- level of anti-inflammatory cytokine IL-13 ([3]; 24 h, FIG. 13A): increased
- level of pro-inflammatory cytokine IL-8 ([3]; 24 h, FIG. 13A): increased
- level of IL-10 ([3]; 24 h, V-plex, FIG. 13A): unchanged
- level of IL-10, listed with IL-8 as pro-inflammatory cytokine ([3]; 24 h, V-plex, FIG. 13A): increased
- secreted level of interferon γ-induced protein 10 (IP-10) ([3]; 24 h, V-plex, FIG. 13B): reduced
- level of anti-inflammatory cytokine IL-10 ([3]; 24 h, multiplex ELISA (Bio-plex), FIG. 12A): increase
- secreted level of CCL2 (MCP-1) ([3]; 24 h, gingerenone A 20 μM, D+Q): reduced
- secreted level of IL-6 ([3]; 24 h, gingerenone A 20 μM, D+Q): reduced
- secretion of pro-inflammatory SASP cytokine IL-1B ([3]; senescent cells): increase
- effect on proliferating (non-irradiated) cells [4]: did not show any significant effect

Structure (SMILES): COc1cc(CCC(C)=O)ccc1O [zingerone]
- senolytic activity (selective decrease of viability of senescent cells) ([1]; 72 h): only 6-shogaol and gingerenone A displayed senolytic activity
